Test results reported in article PMC4467398, “Preclinical antitumor activity of ST7612AA1: a new oral thiol-based histone deacetylase (HDAC) inhibitor” (Oncotarget, 2014).

Tests used:
HCT116 tumor xenografts = test: Western blot of tumor xenografts after oral ST7612AA1; type: in vivo, nude mice; details: xenografts collected 24 h after the last oral administration; 80 mg/10 mL/kg qdx5/wx3w
Experimental: In order to assess the in vivo effect of ST7612AA1 on the acetylation degree of α-tubulin and histones, and on the expression of other key proteins, HCT116 tumor xenografts (3 samples/group) were excised at different times after the last treatment, and then total protein lysates were prepared through the homogenization of tumor samples in lysis buffer containing 0.5% NP-40, supplemented with 10 μg/mL of protease inhibitor cocktail (Sigma Chemical Co., St. Louis, MO, USA). Determination of the protein concentration and Western Blotting analysis were finally performed as above described for the in vitro experiments. The antibodies used are listed in Supplementary Table 2.

[1] = tested on: DOHH2 and TMD8 DLBCL cells; test: Gene Set Enrichment Analysis (GSEA) of gene expression profiles, ST7612AA1 300 nM 8 hrs; type: cell-based, human
[2] = C2.CP.CGP, down-regulated genes
[3] = C2.CP.KEGG, down-regulated genes
[4] = C2.CP.REACTOME, down-regulated genes
[5] = GSEA.C2.CP.BIOCARTA, up-regulated genes
[6] = GSEA.C2.CP.CGP, up-regulated genes
[7] = GSEA.C2.CP.KEGG, up-regulated genes
[8] = GSEA.C2.CP.REACTOME, up-regulated genes
[9] = GSEA.C3.TFT, in both sheets (down- and up-regulated)
[10] = SignatureDB, down-regulated genes
[11] = SignatureDB, up-regulated genes

CC(=O)SCCCCC[C@H](NC(=O)[C@H]1CCC(=O)N1)C(=O)Nc1ccccc1 [ST7612AA1]
HSP70 levels (HCT116 tumor xenografts): significant increase
HSP90 protein levels (HCT116 tumor xenografts): dramatic decrease
acetylated α-tubulin levels (HCT116 tumor xenografts): increased levels
pan H3 acetylation (HCT116 tumor xenografts): strong induction
NES GARY_CD5_TARGETS_DN [1, 2]: -2.075
NES HELLER_HDAC_TARGETS_DN [1, 2]: -2.119
NES MANALO_HYPOXIA_DN [1, 2]: -2.295
NES PEART_HDAC_PROLIFERATION_CLUSTER_DN [1, 2]: -2.218
NES PENG_GLUTAMINE_DEPRIVATION_DN [1, 2]: -2.059
NES SCHLOSSER_MYC_TARGETS_AND_SERUM_RESPONSE_DN [1, 2]: -2.302
NES SCHLOSSER_MYC_TARGETS_AND_SERUM_RESPONSE_UP [1, 2]: -2.093
NES SCHLOSSER_MYC_TARGETS_REPRESSED_BY_SERUM [1, 2]: -2.287
NES SCHUHMACHER_MYC_TARGETS_UP [1, 2]: -2.188
NES ZHONG_RESPONSE_TO_AZACITIDINE_AND_TSA_DN [1, 2]: -2.061
NES KEGG_AMINOACYL_TRNA_BIOSYNTHESIS [1, 3]: -2
NES KEGG_BASE_EXCISION_REPAIR [1, 3]: -1.385
NES KEGG_CELL_CYCLE [1, 3]: -1.433
NES KEGG_N_GLYCAN_BIOSYNTHESIS [1, 3]: -1.4288
NES KEGG_ONE_CARBON_POOL_BY_FOLATE [1, 3]: -1.545
NES KEGG_PROTEASOME [1, 3]: -1.717
NES KEGG_PYRIMIDINE_METABOLISM [1, 3]: -1.58
NES KEGG_RENIN_ANGIOTENSIN_SYSTEM [1, 3]: -1.474
NES KEGG_RNA_DEGRADATION [1, 3]: -1.656
NES KEGG_SPLICEOSOME [1, 3]: -1.947
NES REACTOME_ASSEMBLY_OF_THE_PRE_REPLICATIVE_COMPLEX [1, 4]: -1.875
NES REACTOME_DEADENYLATION_DEPENDENT_MRNA_DECAY [1, 4]: -1.915
NES REACTOME_METABOLISM_OF_NON_CODING_RNA [1, 4]: -2.068
NES REACTOME_METABOLISM_OF_RNA [1, 4]: -1.941
NES REACTOME_MITOCHONDRIAL_PROTEIN_IMPORT [1, 4]: -1.944
NES REACTOME_MRNA_PROCESSING [1, 4]: -1.945
NES REACTOME_MRNA_SPLICING [1, 4]: -2.002
NES REACTOME_PROCESSING_OF_CAPPED_INTRON_CONTAINING_PRE_MRNA [1, 4]: -2.059
NES REACTOME_REGULATION_OF_MITOTIC_CELL_CYCLE [1, 4]: -1.812
NES REACTOME_TRNA_AMINOACYLATION [1, 4]: -1.958
NES BIOCARTA_ARAP_PATHWAY [1, 5]: 1.7296
NES BIOCARTA_CCR5_PATHWAY [1, 5]: 1.628
NES BIOCARTA_COMP_PATHWAY [1, 5]: 1.713
NES BERTUCCI_MEDULLARY_VS_DUCTAL_BREAST_CANCER_DN [1, 6]: 2.239
NES CHEN_LVAD_SUPPORT_OF_FAILING_HEART_UP [1, 6]: 2.236
NES DUTERTRE_ESTRADIOL_RESPONSE_24HR_DN [1, 6]: 2.118
NES GALINDO_IMMUNE_RESPONSE_TO_ENTEROTOXIN [1, 6]: 2.132
NES GAUSSMANN_MLL_AF4_FUSION_TARGETS_E_UP [1, 6]: 2.11
NES HELLER_HDAC_TARGETS_SILENCED_BY_METHYLATION_UP [1, 6]: 2.6813
NES HELLER_HDAC_TARGETS_UP [1, 6]: 2.622
NES KINSEY_TARGETS_OF_EWSR1_FLII_FUSION_DN [1, 6]: 2.138
NES PEART_HDAC_PROLIFERATION_CLUSTER_UP [1, 6]: 2.166
NES ZHONG_RESPONSE_TO_AZACITIDINE_AND_TSA_UP [1, 6]: 2.29
NES KEGG_ASTHMA [1, 7]: 1.8598
NES KEGG_AXON_GUIDANCE [1, 7]: 1.813
NES KEGG_CELL_ADHESION_MOLECULES_CAMS [1, 7]: 1.93
NES KEGG_ENDOCYTOSIS [1, 7]: 1.748
NES KEGG_EPITHELIAL_CELL_SIGNALING_IN_HELICOBACTER_PYLORI_INFECTION [1, 7]: 1.747
NES KEGG_FOCAL_ADHESION [1, 7]: 1.8042
NES KEGG_LEUKOCYTE_TRANSENDOTHELIAL_MIGRATION [1, 7]: 1.726
NES KEGG_LYSOSOME [1, 7]: 1.886
NES KEGG_SYSTEMIC_LUPUS_ERYTHEMATOSUS [1, 7]: 2.269
NES KEGG_VIBRIO_CHOLERAE_INFECTION [1, 7]: 1.733
NES REACTOME_AMYLOIDS [1, 8]: 2.248
NES REACTOME_CELL_CELL_JUNCTION_ORGANIZATION [1, 8]: 1.864
NES REACTOME_DEPOSITION_OF_NEW_CENPA_CONTAINING_NUCLEOSOMES_AT_THE_CENTROMERE [1, 8]: 1.861
NES REACTOME_MEIOSIS [1, 8]: 1.9137
NES REACTOME_MEIOTIC_RECOMBINATION [1, 8]: 2.082
NES REACTOME_MEIOTIC_SYNAPSIS [1, 8]: 1.86
NES REACTOME_PACKAGING_OF_TELOMERE_ENDS [1, 8]: 2.135
NES REACTOME_RNA_POL_I_PROMOTER_OPENING [1, 8]: 2.137
NES REACTOME_RNA_POL_I_TRANSCRIPTION [1, 8]: 1.892
NES REACTOME_TELOMERE_MAINTENANCE [1, 8]: 1.906
NES TTTNNANAGCYR_UNKNOWN [1, 9]: 1.939
NES V$CEBP_Q2 [1, 9]: 1.715
NES V$CEBP_Q2_01 [1, 9]: 1.7492
NES V$CREBP1_01 [1, 9]: 1.784
NES V$E4BP4_01 [1, 9]: 1.766
NES V$GATA_Q6 [1, 9]: 1.724
NES V$HLF_01 [1, 9]: 1.724
NES V$MYOGENIN_Q6 [1, 9]: 1.714
NES V$OCT1_B [1, 9]: 1.782
NES […]_UNKNOWN [1, 9]: 2.04
NES CSR_EARLY_UP.V1_UP ([1]; GSEA.C6, down-regulated genes): -1.379
NES EIF4E_UP ([1]; GSEA.C6, down-regulated genes): -1.468
NES ERB2_UP.V1_DN ([1]; GSEA.C6, down-regulated genes): -1.443
NES ESC_J1_UP_LATE.V1_DN ([1]; GSEA.C6, down-regulated genes): -1.204
NES GCNP_SHH_UP_EARLY.V1_UP ([1]; GSEA.C6, down-regulated genes): -1.491
NES GCNP_SHH_UP_LATE.V1_UP ([1]; GSEA.C6, down-regulated genes): -1.454
NES MEK_UP.V1_DN ([1]; GSEA.C6, down-regulated genes): -1.169
NES MYC_UP.V1_UP ([1]; GSEA.C6, down-regulated genes): -2.19
NES VEGF_A_UP.V1_DN ([1]; GSEA.C6, down-regulated genes): -1.363
NES BCAT.100_UP.V1_UP ([1]; GSEA.C6, up-regulated genes): 1.912
NES CAHOY_NEURONAL ([1]; GSEA.C6, up-regulated genes): 1.833
NES E2F3_UP.V1_UP ([1]; GSEA.C6, up-regulated genes): 1.833
NES ERB2_UP.V1_UP ([1]; GSEA.C6, up-regulated genes): 2.065
NES ESC_V6.5_UP_LATE.V1_UP ([1]; GSEA.C6, up-regulated genes): 1.857
NES MEK_UP.V1_UP ([1]; GSEA.C6, up-regulated genes): 2.011
NES P53_DN.V1_UP ([1]; GSEA.C6, up-regulated genes): 1.814
NES RAF_UP.V1_UP ([1]; GSEA.C6, up-regulated genes): 1.891
NES STK33_SKM_UP ([1]; GSEA.C6, up-regulated genes): 1.998
NES STK33_UP ([1]; GSEA.C6, up-regulated genes): 1.832
NES BLOOD_MODULE-3.7_UNDETERMINED [1, 10]: -2.014
NES GLUTAMINE_STARVE_DOWN [1, 10]: -2.082
NES HIF1ALPHA_1.5X_DOWN [1, 10]: -2.057
NES MYC_CHIP_PET_EXPR_UP [1, 10]: -2.152
NES MYC_OVEREXPRESSION_1.5X_UP [1, 10]: -2.439
NES MYC_OVEREXPRESSION_2X_UP [1, 10]: -2.047
NES MYELOMA_TACI_LOW_PLASMABLAST_GENE [1, 10]: -1.944
NES NOTCH_T-ALL_UP_PALOMERO [1, 10]: -2.039
NES PROLIFERATION_NODE1640 [1, 10]: -2.024
NES RAPAMYCIN_BJAB_DOWN [1, 10]: -1.887
NES BLOOD_MODULE-1.2_PLATELETS [1, 11]: 0.6607
NES BLOOD_MODULE-3.2_INFLAMMATION-1 [1, 11]: 0.6587
NES CNS_PNS_NODE1663 [1, 11]: 0.6849
NES HIF1ALPHA_1.5X_UP [1, 11]: 0.6544
NES HRAS_OVEREXPRESSION_4X_UP [1, 11]: 0.6606
NES JAK2_DOWNREGULATED_PMBL [1, 11]: 0.6252
NES KRAS_UP [1, 11]: 0.6774
NES NORMAL_MESENCHYMAL-1_NODE1643 [1, 11]: 0.6887
NES RETICULOCYTE_LARGE [1, 11]: 0.7092
NES SERUM_RESPONSE_FB_DOWN [1, 11]: 0.6176
